Test results taken from patent US20230233469A1, “SEMI-SOLID FORMULATION FOR VOLUNTARY ORAL ADMINISTRATION OF BIOACTIVE COMPOUNDS TO RODENTS” (priority 2020, published 2023).

Details: 80 mg/Kg body weight in semi-solid pill
Description: Data are presented as mean±S.E.M. (n=6-8 experimental group).

## CC(=O)CC(c1ccccc1)c1c(O)c2ccccc2oc1=O (centres unmarked) [warfarin]
  day of euthanasia for critical signs of illness (e.g. bleeding): 8 days
  day post-administration from which poor health status and evident signs of toxicity appeared: 4 days
